Columns and labels:
[1] = test system: Rattus norvegicus; assay: Inhibition of serum TXB2 production in the rats after peroral administration; assay type: functional; conditions: po
[2] = test system: Mus musculus; assay: Ability to protect mice from the lethal effect of Platelet activating factor on po administration of compound; assay type: functional
[3] = species: Oryctolagus cuniculus; assay: The compound was tested for inhibition of Platelet activating factor (PAF) induced platelet aggregation in rabbit platelet rich plasma; assay type: functional
[4] = test system: Mus musculus; assay: Ability to protect mice from the lethal effect of Platelet activating factor on iv administration of compound; assay type: functional
[5] = test system: Rattus norvegicus; assay: Inhibition of serum TXB2 production in the rats after intravenous administration; assay type: functional
[6] = molecular target: T1, Thromboxane-A synthase (Homo sapiens, UniProt P24557); assay: Thromboxane A2 synthase inhibitory activity was measured from inhibition of thromboxane B2 production in human platelet microsomes; set-up: species or system Microsome
T1 sequence (P24557 whole entry): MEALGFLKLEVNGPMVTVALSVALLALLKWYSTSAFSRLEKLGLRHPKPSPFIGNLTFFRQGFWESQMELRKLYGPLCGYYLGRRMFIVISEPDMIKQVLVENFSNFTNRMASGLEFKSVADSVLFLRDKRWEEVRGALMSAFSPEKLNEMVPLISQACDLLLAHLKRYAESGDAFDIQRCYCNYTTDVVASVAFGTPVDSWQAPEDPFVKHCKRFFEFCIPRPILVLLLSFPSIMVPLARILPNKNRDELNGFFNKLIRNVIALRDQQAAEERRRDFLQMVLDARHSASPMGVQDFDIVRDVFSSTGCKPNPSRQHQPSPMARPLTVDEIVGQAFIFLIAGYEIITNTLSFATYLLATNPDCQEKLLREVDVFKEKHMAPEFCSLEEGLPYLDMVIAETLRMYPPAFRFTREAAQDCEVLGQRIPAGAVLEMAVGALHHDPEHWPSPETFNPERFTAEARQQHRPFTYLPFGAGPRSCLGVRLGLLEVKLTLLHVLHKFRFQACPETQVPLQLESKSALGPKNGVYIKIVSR

## CCOC(=O)CCCC/[N+]([O-])=C(/c1cccnc1)c1cccc(COC(=O)N2CCc3c(sc4c3C(c3ccccc3Cl)=NCc3nnc(C)n3-4)C2)c1
[1]
  ED50: > 10 mg/kg
[2]
  ED50: > 10 mg/kg
[3]
  IC50: 139 nM
[4]
  ED50: 0.7 mg/kg
[5]
  ED50: 0.1 mg/kg
[6]
  IC50: 62 nM

## O=C(O)/C=C/c1ccc(Cn2ccnc2)cc1 [OZAGREL]
[1]
  ED50: 0.1 mg/kg
[5]
  ED50: 0.02 mg/kg

## CCOC(=O)CCCC/[N+]([O-])=C(/c1cccnc1)c1cccc(CN2CCc3c(sc4c3C(c3ccccc3Cl)=NCc3nnc(C)n3-4)C2)c1
[1]
  ED50: > 10 mg/kg
[2]
  ED50: > 10 mg/kg
[3]
  IC50: 190 nM
[4]
  ED50: 0.8 mg/kg
[5]
  ED50: 0.1 mg/kg
[6]
  IC50: 67 nM

## CCOC(=O)CCCC/[N+]([O-])=C(/c1cccnc1)c1cccc(COC(=O)N2CCc3c(sc4c3C(c3ccccc3Cl)=NC(C)c3nnc(C)n3-4)C2)c1 (stereo not drawn)
[1]
  ED50: > 10 mg/kg
[2]
  ED50: > 10 mg/kg
[3]
  IC50: 41 nM
[4]
  ED50: 0.2 mg/kg
[5]
  ED50: 0.1 mg/kg
[6]
  IC50: 69 nM

## O=C(O)CCCC/C=C(/c1ccccc1)c1cccnc1 [ISBOGREL]
[1]
  ED50: 0.05 mg/kg
[5]
  ED50: 0.01 mg/kg

## CCOC(=O)CCCC/[N+]([O-])=C(/c1cccnc1)c1cccc(CN2CCc3c(sc4c3C(c3ccccc3Cl)=NC(C)c3nnc(C)n3-4)C2)c1 (stereo not drawn)
[1]
  ED50: > 10 mg/kg
[2]
  ED50: > 10 mg/kg
[3]
  IC50: 47 nM
[4]
  ED50: 0.2 mg/kg
[5]
  ED50: 0.1 mg/kg
[6]
  IC50: 60 nM
